# Data from patent publication US6737383B1, “Herbicidal oxadiazolidines” (priority 1999, dated 2004).
# Columns and labels:
# [1] = test system: duck salad; experiment: Test B flood test duck salad; type: in vivo, Heteranthera limosa
# In short: (§1)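 Each value is a visual injury score relative to controls, with 10 meaning complete control and 0 no effect. Evaluation took place twelve to sixteen days after the 2-leaf-stage plants were treated and kept in the greenhouse.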
# [2] = test system: smallflower flatsedge; experiment: Test B flood test smallflower flatsedge; type: in vivo, Cyperus difformis
# In short: as §1
# [3] = test system: velvetleaf; experiment: Test B pre/postemergence velvetleaf; type: in vivo, Abutilon theophrasti
# In short: (§2)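 Herbicidal effect was estimated by eye on a ten-point control scale after plants spent twelve to sixteen days in a greenhouse following soil or foliar treatment. Foliar sprays targeted plants at one to four leaves; all doses were formulated in a non-phytotoxic solvent with surfactant.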
# [4] = test system: morningglory; experiment: Test B pre/postemergence morningglory; type: in vivo, Ipomoea hederacea
# In short: as §2
# [5] = test system: corn; experiment: Test B pre/postemergence corn; type: in vivo, Zea mays
# In short: as §2
# [6] = test system: purple nutsedge; experiment: Test B pre/postemergence purple nutsedge; type: in vivo, Cyperus rotundus
# In short: as §2
# [7] = test system: wheat; experiment: Test B pre/postemergence wheat; type: in vivo, Triticum aestivum
# In short: as §2
# [8] = test system: rape; experiment: Test B pre/postemergence rape; type: in vivo, Brassica napus
# In short: as §2
# [9] = test system: pigweed; experiment: Test B pre/postemergence pigweed; type: in vivo, Amaranthus retroflexus
# In short: as §2
# [10] = test system: rice; experiment: Test B flood test rice; type: in vivo, Oryza sativa
# In short: as §1
# [11] = test system: sugar beet; experiment: Test B pre/postemergence sugar beet; type: in vivo, Beta vulgaris
# In short: as §2
# [12] = test system: surinam grass; experiment: Test B pre/postemergence surinam grass; type: in vivo, Brachiaria decumbens
# In short: as §2
# [13] = test system: cocklebur; experiment: Test B pre/postemergence cocklebur; type: in vivo, Xanthium strumarium
# In short: as §2
# [14] = test system: blackgrass; experiment: Test B pre/postemergence blackgrass; type: in vivo, Alopecurus myosuroides
# In short: as §2
# [15] = test system: crabgrass; experiment: Test B pre/postemergence crabgrass; type: in vivo, Digitaria sanguinalis
# In short: as §2
# [16] = test system: giant foxtail; experiment: Test B pre/postemergence giant foxtail; type: in vivo, Setaria faberii
# In short: as §2
# [17] = Postemergence (flood test species), Rate 125 g/ha, scale of 0 to 10 where 0 is no effect and 10 is complete control
# [18] = Rate 62 g/ha, Postemergence section, flood test species, scale of 0 to 10 where 0 is no effect and 10 is complete control
# [19] = Rate 250 g/ha, Postemergence (flood test), scale 0 to 10, 0 is no effect, 10 is complete control
# [20] = Rate 500 g/ha, listed under Postemergence (flood test species), scale 0 to 10
# [21] = Preemergence, Rate 62 g/ha, scale of 0 to 10 where 0 is no effect and 10 is complete control
# [22] = Preemergence, Rate 125 g/ha, 0 is no effect, 10 is complete control
# [23] = Preemergence, Rate 250 g/ha, scale 0 to 10, 0 is no effect, 10 is complete control
# [24] = Preemergence, Rate 500 g/ha, scale 0 to 10 (0 no effect, 10 complete control)
# [25] = Rate 250 g/ha, Postemergence, scale 0 to 10, 0 is no effect, 10 is complete control
# [26] = Rate 500 g/ha, Postemergence, scale 0 to 10
# [27] = Postemergence, Rate 125 g/ha, scale of 0 to 10 where 0 is no effect and 10 is complete control
# [28] = Rate 62 g/ha, Postemergence, scale of 0 to 10 where 0 is no effect and 10 is complete control
smiles,measurement,setting,value
Cc1nsc(C)c1-n1c(=O)on(C(=O)N(c2ccc(F)cc2F)C(C)C)c1=O [Compound 158],Ducksalad plant response rating,[1]; [17],0
same,Ducksalad plant response rating,[1]; [18],0
same,"Plant response rating, Ducksalad",[1]; [19],0
same,Ducksalad plant response rating,[1]; [20],0
same,S. Flatsedge plant response rating,[2]; [17],0
same,S. Flatsedge plant response rating,[2]; [18],0
same,"Plant response rating, S. Flatsedge",[2]; [19],0
same,S. Flatsedge plant response rating,[2]; [20],0
same,Velvetleaf plant response rating,[3]; [21],0
same,Velvetleaf plant response rating (0 to 10 scale),[3]; [22],0
same,Velvetleaf plant response rating,[3]; [23],0
same,Velvetleaf plant response rating,[3]; [24],0
same,"Plant response rating, Velvetleaf",[3]; [25],0
same,Velvetleaf plant response rating,[3]; [26],0
same,Morningglory plant response rating,[4]; [27],2
same,Morningglory plant response rating,[4]; [21],0
same,Morningglory plant response rating (0 to 10 scale),[4]; [22],0
same,Morningglory plant response rating,[4]; [23],1
same,Morningglory plant response rating,[4]; [24],2
same,Morningglory plant response rating,[4]; [28],0
same,"Plant response rating, Morningglory",[4]; [25],2
same,Morningglory plant response rating,[4]; [26],2
same,Corn plant response rating,[5]; [27],0
same,Corn plant response rating,[5]; [21],0
same,Corn plant response rating (0 to 10 scale),[5]; [22],0
same,Corn plant response rating,[5]; [23],2
same,Corn plant response rating,[5]; [24],2
same,Corn plant response rating,[5]; [28],0
same,"Plant response rating, Corn",[5]; [25],0
same,Corn plant response rating,[5]; [26],0
same,Nutsedge plant response rating,[6]; [27],0
same,Nutsedge plant response rating,[6]; [21],0
same,Nutsedge plant response rating (0 to 10 scale),[6]; [22],0
same,Nutsedge plant response rating,[6]; [23],0
same,Nutsedge plant response rating,[6]; [24],0
same,Nutsedge plant response rating,[6]; [28],0
same,"Plant response rating, Nutsedge",[6]; [25],0
same,Nutsedge plant response rating,[6]; [26],0
same,Wheat plant response rating,[7]; [21],0
same,Wheat plant response rating (0 to 10 scale),[7]; [22],0
same,Wheat plant response rating,[7]; [23],0
same,Wheat plant response rating,[7]; [24],0
same,"Plant response rating, Wheat",[7]; [25],0
same,Wheat plant response rating,[7]; [26],0
same,Rape plant response rating,[8]; [27],0
same,Rape plant response rating,[8]; [21],0
same,Rape plant response rating (0 to 10 scale),[8]; [22],0
same,Rape plant response rating,[8]; [23],0
same,Rape plant response rating,[8]; [24],0
same,Rape plant response rating,[8]; [28],0
same,"Plant response rating, Rape",[8]; [25],0
same,Rape plant response rating,[8]; [26],0
same,Redroot pigweed plant response rating,[9]; [27],2
same,Redroot pigweed plant response rating,[9]; [21],0
same,Redroot pigweed plant response rating (0 to 10 scale),[9]; [22],0
same,Redroot pigweed plant response rating,[9]; [23],0
same,Redroot pigweed plant response rating,[9]; [24],2
same,Redroot pigweed plant response rating,[9]; [28],0
same,"Plant response rating, Redroot pigweed",[9]; [25],2
same,Redroot pigweed plant response rating,[9]; [26],4
same,Rice plant response rating,[10]; [17],0
same,Rice plant response rating,[10]; [18],0
same,"Plant response rating, Rice",[10]; [19],0
same,Rice plant response rating,[10]; [20],0
same,Sugarbeets plant response rating,[11]; [27],0
same,Sugarbeets plant response rating,[11]; [21],0
same,Sugarbeets plant response rating (0 to 10 scale),[11]; [22],0
same,Sugarbeets plant response rating,[11]; [23],0
same,Sugarbeets plant response rating,[11]; [24],0
same,Sugarbeets plant response rating,[11]; [28],0
same,"Plant response rating, Sugarbeets",[11]; [25],0
same,Sugarbeets plant response rating,[11]; [26],0
same,B. signalgrass plant response rating,[12]; [27],0
same,B. signalgrass plant response rating,[12]; [21],0
same,B. signalgrass plant response rating (0 to 10 scale),[12]; [22],0
same,B. signalgrass plant response rating,[12]; [23],0
same,B. signalgrass plant response rating,[12]; [24],0
same,B. signalgrass plant response rating,[12]; [28],0
same,"Plant response rating, B. signalgrass",[12]; [25],0
same,B. signalgrass plant response rating,"[12]; Rate 500 g/ha, Postemergence, scale 0 to 10, 0 no effect, 10 complete control",0
same,Cocklebur plant response rating,[13]; [27],0
same,Cocklebur plant response rating,[13]; [21],0
same,Cocklebur plant response rating (0 to 10 scale),[13]; [22],0
same,Cocklebur plant response rating,[13]; [23],0
same,Cocklebur plant response rating,[13]; [24],0
same,Cocklebur plant response rating,[13]; [28],0
same,"Plant response rating, Cocklebur",[13]; [25],0
same,Cocklebur plant response rating,[13]; [26],0
same,Blackgrass plant response rating,[14]; [27],1
same,Blackgrass plant response rating,[14]; [21],0
same,Blackgrass plant response rating (0 to 10 scale),[14]; [22],0
same,Blackgrass plant response rating,[14]; [24],3
same,Blackgrass plant response rating,[14]; [28],1
same,"Plant response rating, Blackgrass",[14]; [25],2
same,Blackgrass plant response rating,[14]; [26],5
same,Crabgrass plant response rating,[15]; [27],0
same,Crabgrass plant response rating,[15]; [21],3
same,Crabgrass plant response rating (0 to 10 scale),[15]; [22],3
same,Crabgrass plant response rating,[15]; [23],4
same,Crabgrass plant response rating,[15]; [24],7
same,Crabgrass plant response rating,[15]; [28],0
same,"Plant response rating, Crabgrass",[15]; [25],3
same,Crabgrass plant response rating,[15]; [26],4
same,Giant foxtail plant response rating,[16]; [27],0
same,Giant foxtail plant response rating,[16]; [21],3
same,Giant foxtail plant response rating (0 to 10 scale),[16]; [22],4
same,Giant foxtail plant response rating,[16]; [23],7
same,Giant foxtail plant response rating,[16]; [24],8
same,Giant foxtail plant response rating,[16]; [28],0
same,"Plant response rating, Giant foxtail",[16]; [25],4
same,Giant foxtail plant response rating,[16]; [26],5
